In brackets after ≈: the same amount, converted by molar mass.
Experiments:
[1] = biological target: mu opioid receptor (μ-OR); design: method as in PMID 27744679; settings: read-out: EC50 agonist, mu opioid receptor; cited from earlier work
α-adrenoreceptor = test system: α-adrenoreceptor; design: method as in PMID 6150989; settings: vascular smooth muscle of male albino rabbits, displacement analysis; cited from earlier work
[2] = biological target: delta opioid receptor (δ-OR, OPRD1); design: method as in PMID 27744679; settings: calcium mobilization pathway; read-out: EC50 agonist, delta opioid receptor; cited from earlier work
[3] = test system: HCT116 colon cancer cells; test: MTT cell viability assay, HCT116; assay type: cell-based, human
Method: (§1) Aaptamine was tested against HCT116 colon cancer cells and cell viability was assessed after 48 h using an MTT (3-(4,5-dimethyl dimethylthiazol-2-yl)-2,5-diphenyltetrazolium bromide) assay. […] The results agreed with the findings of Kobayashi et al. that aaptamine at concentrations of 20–50 µM increased the expression of the cyclin-dependent kinase inhibitor p21, a protein known to act as a negative regulator of cell cycle progression, thus preventing cell proliferation. […] To alternatively explain the activity of aaptamine, we tested the compound for its ability to inhibit the chymotrypsin-like activity of a purified 20S proteasome from human erythrocytes. Proteasome inhibitors are validated anticancer agents. Aaptamine was able to inhibit the enzyme activity by 41% at 50 µM (Figure 2b). […] In our study, aaptamine had similar IC50 values for cancer cell growth inhibition and proteasome inhibition in vitro (~50 µM).
Human colon carcinoma cells (HCT116) were cultured in Dulbecco’s modified Eagle’s medium (DMEM, Invitrogen, MA, USA), supplemented with 10% fetal bovine serum (FBS, Sigma-Aldrich, MO, USA) and 1% antibiotic-antimycotic (Invitrogen, MA, USA) humidified at 37 °C with 5% CO2. […] Detection was performed using a SpectraMax M5 spectrometer (Molecular Devices, CA, USA) at 570 nm and cell viability was calculated and expressed relative to the vehicle control.

[4] = biological target: T1, purified 20S proteasome from human erythrocytes (Homo sapiens, UniProt P28074); test: 20S proteasome chymotrypsin-like activity assay (Suc-LLVY-AMC); assay type: biochemical
T1 construct: purified 20S proteasome from human erythrocyte; purchased Enzo Life Sciences; host or cells: human erythrocytes (tissue-purified)
Method: as §1
The 20S proteasome assay kit from Enzo Life Sciences (NY, USA) is a fluorogenic, non-radioactive assay designed to measure the chymotrypsin-like protease activity of purified 20S proteasome from human erythrocyte. […] The fluorescence was then measured at an excitation of 360 nm and emission of 460 nm using a SpectraMax M5 plate reader (Molecular Device). The data were recorded every 2 min for 20 min. […]

DRD4 = biological target: T2, DRD4 (Homo sapiens, UniProt P21917); test: PathHunter β-arrestin assay, antagonist mode; assay type: cell-based
T2 sequence (P21917 1-419): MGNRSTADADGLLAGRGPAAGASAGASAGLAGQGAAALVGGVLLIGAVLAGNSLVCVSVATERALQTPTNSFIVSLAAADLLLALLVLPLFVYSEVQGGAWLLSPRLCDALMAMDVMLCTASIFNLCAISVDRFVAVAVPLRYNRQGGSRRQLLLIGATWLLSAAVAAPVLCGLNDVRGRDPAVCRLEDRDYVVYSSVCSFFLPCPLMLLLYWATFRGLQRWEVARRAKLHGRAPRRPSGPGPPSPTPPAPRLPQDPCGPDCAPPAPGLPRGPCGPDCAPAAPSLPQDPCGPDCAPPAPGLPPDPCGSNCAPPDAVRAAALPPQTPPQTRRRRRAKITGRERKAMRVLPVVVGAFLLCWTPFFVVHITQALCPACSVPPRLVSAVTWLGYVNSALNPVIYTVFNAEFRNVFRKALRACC
Method: The assay was performed by DiscoverX Corporation (Fremont, CA) using PathHunter β -arrestin enzyme fragment complementation (EFC) technology, in a similar way to that described elsewhere [35, 36]. The PathHunter cell lines were taken from freezer stocks according to standard procedures. A total of 20 µL of cells were seeded into white 384-well plates and incubated at 37 °C for the appropriate time prior to testing.
In this assay format, the standard agonist was added at an EC80 concentration. To the plate that contained the cells, 5 µL of the 5X sample was added and incubated for 30 min at 37 °C or room temperature. After the incubation period, 5 µL of the 6X EC80 agonist in an assay buffer was added to the cells and incubated for additional 90 or 180 min at 37 °C or room temperature.
The assays were performed at 10-point concentrations using three-fold serial dilutions in duplicate. For all the assay formats, the final assay vehicle concentration was 1%.

Candida tropicalis = test system: Candida tropicalis; design: method as in doi:10.1016/S0040-4020(03)01069-X; settings: antifungal; cited from earlier work
p21 = test system: p21; design: method as in doi:10.1016/j.tetlet.2007.01.113; settings: cited from earlier work
[5] = biological target: opioid receptor delta 1 (OPRD1) (Homo sapiens, UniProt P41143); test: PathHunter β-arrestin assay, agonist mode; assay type: cell-based; settings: 20 µM primary screen
Chain of opioid receptor delta 1 (OPRD1) (P41143 whole entry, the tested form may be a part): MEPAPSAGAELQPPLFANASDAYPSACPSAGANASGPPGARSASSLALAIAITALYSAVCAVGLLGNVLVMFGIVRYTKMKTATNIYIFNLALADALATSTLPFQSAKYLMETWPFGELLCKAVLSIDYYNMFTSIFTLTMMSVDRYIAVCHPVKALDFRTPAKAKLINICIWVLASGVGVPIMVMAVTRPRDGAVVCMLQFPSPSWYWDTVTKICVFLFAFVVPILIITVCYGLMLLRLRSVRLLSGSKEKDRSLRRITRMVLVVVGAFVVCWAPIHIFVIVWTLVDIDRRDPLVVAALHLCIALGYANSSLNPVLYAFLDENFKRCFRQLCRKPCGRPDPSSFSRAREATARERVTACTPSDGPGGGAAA
Method: Aaptamine (20 µM) was profiled in gpcrMAX panel biosensor assays (in agonist and antagonist modes) against a panel of 168 GPCRs. The assay was performed by DiscoverX Corporation (Fremont, CA) using PathHunter β -arrestin enzyme fragment complementation (EFC) technology, in a similar way to that described elsewhere. The PathHunter cell lines were taken from freezer stocks according to standard procedures. A total of 20 µL of cells were seeded into white 384-well plates and incubated at 37 °C for the appropriate time prior to testing.
For agonist determination, aaptamine was incubated with PathHunter cell lines to induce a response. To increase the concentration, intermediate dilution from 20 µM of aaptamine was performed to generate a 5X sample in an assay buffer. Then, 5 µL of 5X sample was added to the plate with PathHunter cells and incubated for 90 or 180 min at 37 °C or room temperature. The percentage activity of aaptamine was calculated following this formula: % activity = 100% × (mean RLU of test sample − mean RLU of vehicle control)/(mean MAX control ligand − mean RLU of vehicle control).

In the case of COc1cc2ccnc3c2c(c1OC)NC=C3 [aaptamine], the EC50 [1] is given as 10.1 µM, the “effective concentration, α-adrenoreceptor antagonism” value (α-adrenoreceptor) is given as 30 µM and the EC50 [2] is given as 5.1 µM. For the same compound, the “reduction of viability of HCT116” value ([3]; 50 µM (highest concentration tested), 48 h, MTT) was 50%, the IC50 ([3]; Homo sapiens, HCT-116, HCT116, 48 h, read-out: IC50 cancer cell growth inhibition) was ~50 µM and the inhibition at 50 µM ([4]; 50 µM, 10 min preincubation, read-out: inhibition of enzyme activity (chymotrypsin-like)) was 41%. The IC50 ([4]; read-out: IC50 proteasome inhibition in vitro) was ~50 µM, the Emax (DRD4; dose-response analysis, read-out: Dose-Response Maximal Response, % Inhibition) was 94.5% and the IC50 (DRD4; dose-response, antagonist mode) was 6.9 µM. For the same compound, the “selectivity for DRD4 among the dopamine receptors” value (DRD4; versus DRD2S and DRD2L, from IC50 values) was 3.7- to 5.6 fold, the MIC (Candida tropicalis) was 110 µM (≈ 25.1 µg/mL) and the “concentrations that increased the expression of p21” value (p21) was 20 to 50 µM. The “agonistic activity in the β-arrestin assay” value [5] was “did not demonstrate significant agonistic activity”.

Reference: paper PMC8466755, “GPCR Pharmacological Profiling of Aaptamine from the Philippine Sponge Stylissa sp. Extends Its Therapeutic Potential for Noncommunicable Diseases” (Molecules, 2021)
